Experiments:
[1] = test system: MCF7; experiment: Cytotoxicity against human MCF7 cells assessed as cell viability at 100 uM relative to control; assay type: functional; conditions: read-out: Activity
[2] = test system: MDA-MB-231; experiment: Cytotoxicity against human MDA-MB-231 cells assessed as cell viability at 100 uM relative to control; assay type: functional; conditions: read-out: Activity
[3] = test system: MDA-MB-468; experiment: Cytotoxicity against human MDA-MB-468 cells assessed as cell viability at 100 uM relative to control; assay type: functional; conditions: read-out: Activity
[4] = test system: SK-BR-3; experiment: Cytotoxicity against human SKBR3 cells assessed as cell viability at 100 uM relative to control; assay type: functional; conditions: read-out: Activity
[5] = test system: T47D; experiment: Cytotoxicity against human T47D cells assessed as cell viability at 100 uM relative to control; assay type: functional; conditions: read-out: Activity
[6] = test system: Caco-2; experiment: Cytotoxicity against human Caco2 cells assessed as cell viability at 100 uM relative to control; assay type: functional; conditions: read-out: Activity
[7] = test system: HCT-116; experiment: Cytotoxicity against human HCT116 cells assessed as cell viability at 100 uM relative to control; assay type: functional; conditions: read-out: Activity
[8] = test system: HT-29; experiment: Cytotoxicity against human HT-29 cells assessed as cell viability at 100 uM relative to control; assay type: functional; conditions: read-out: Activity
[9] = test system: SW48; experiment: Cytotoxicity against human SW48 cells assessed as cell viability at 100 uM relative to control; assay type: functional; conditions: read-out: Activity
[10] = test system: A549; experiment: Cytotoxicity against human A549 cells assessed as cell viability at 100 uM relative to control; assay type: functional; conditions: read-out: Activity
[11] = test system: NCI-H1299; experiment: Cytotoxicity against human H1299 cells assessed as cell viability at 100 uM relative to control; assay type: functional; conditions: read-out: Activity
[12] = test system: CNE; experiment: Cytotoxicity against human CNE1 cells assessed as cell viability at 100 uM relative to control; assay type: functional; conditions: read-out: Activity
[13] = Cytotoxicity against human HK1 cells assessed as cell viability at 100 uM relative to control; assay type: functional; conditions: HK-1, read-out: Activity
[14] = test system: SUNE1; experiment: Cytotoxicity against human SUNE1 cells assessed as cell viability at 100 uM relative to control; assay type: functional; conditions: read-out: Activity
[15] = test system: SH-SY5Y; experiment: Cytotoxicity against human SH-SY5Y cells assessed as cell viability at 100 uM relative to control; assay type: functional; conditions: read-out: Activity
[16] = test system: ASPC1; experiment: Cytotoxicity against human AsPC1 cells assessed as cell viability at 100 uM relative to control; assay type: functional; conditions: read-out: Activity
[17] = test system: BXPC-3; experiment: Cytotoxicity against human BxPC3 cells assessed as cell viability at 100 uM relative to control; assay type: functional; conditions: read-out: Activity
[18] = test system: SW1990; experiment: Cytotoxicity against human SW1990 cells assessed as cell viability at 100 uM relative to control; assay type: functional; conditions: read-out: Activity
[19] = Cytotoxicity against human MCF10A cells assessed as cell viability at 100 uM relative to control; assay type: cell-based, MCF-10A; conditions: read-out: Activity
[20] = Cytotoxicity against human MRC5 cells assessed as cell viability at 100 uM relative to control; assay type: cell-based; conditions: read-out: Activity
[21] = test system: MCF7; experiment: Cytotoxicity against human MCF7 cells assessed as reduction in cell viability; assay type: functional, cell-based
[22] = test system: MDA-MB-231; experiment: Cytotoxicity against human MDA-MB-231 cells assessed as reduction in cell viability; assay type: functional, cell-based
[23] = test system: MDA-MB-468; experiment: Cytotoxicity against human MDA-MB-468 cells assessed as reduction in cell viability; assay type: functional, cell-based
[24] = test system: SK-BR-3; experiment: Cytotoxicity against human SKBR3 cells assessed as reduction in cell viability; assay type: functional, cell-based
[25] = test system: T47D; experiment: Cytotoxicity against human T47D cells assessed as reduction in cell viability; assay type: functional, cell-based
[26] = test system: Caco-2; experiment: Cytotoxicity against human Caco2 cells assessed as reduction in cell viability; assay type: functional, cell-based
[27] = test system: HCT-116; experiment: Cytotoxicity against human HCT116 cells assessed as reduction in cell viability; assay type: functional, cell-based
[28] = test system: HT-29; experiment: Cytotoxicity against human HT-29 cells assessed as reduction in cell viability; assay type: functional, cell-based
[29] = test system: SW48; experiment: Cytotoxicity against human SW48 cells assessed as reduction in cell viability; assay type: functional, cell-based
[30] = test system: A549; experiment: Cytotoxicity against human A549 cells assessed as reduction in cell viability; assay type: functional, cell-based
[31] = test system: NCI-H1299; experiment: Cytotoxicity against human H1299 cells assessed as reduction in cell viability; assay type: functional, cell-based
[32] = test system: CNE; experiment: Cytotoxicity against human CNE1 cells assessed as reduction in cell viability; assay type: functional, cell-based
[33] = Cytotoxicity against human HK1 cells assessed as reduction in cell viability; assay type: functional, cell-based; conditions: HK-1
[34] = test system: SUNE1; experiment: Cytotoxicity against human SUNE1 cells assessed as reduction in cell viability; assay type: functional, cell-based
[35] = test system: SH-SY5Y; experiment: Cytotoxicity against human SH-SY5Y cells assessed as reduction in cell viability; assay type: functional, cell-based
[36] = test system: ASPC1; experiment: Cytotoxicity against human AsPC1 cells assessed as reduction in cell viability; assay type: functional, cell-based
[37] = test system: BXPC-3; experiment: Cytotoxicity against human BxPC3 cells assessed as reduction in cell viability; assay type: functional, cell-based
[38] = test system: SW1990; experiment: Cytotoxicity against human SW1990 cells assessed as reduction in cell viability; assay type: functional, cell-based
[39] = test system: MCF-10A; experiment: Cytotoxicity against human MCF10A cells assessed as reduction in cell viability; assay type: cell-based
[40] = test system: MRC5; experiment: Cytotoxicity against human MRC5 cells assessed as reduction in cell viability; assay type: cell-based

| Compound | viability at 100 µM [1] [%] | viability at 100 µM [2] [%] | viability at 100 µM [3] [%] | viability at 100 µM [4] [%] | viability at 100 µM [5] [%] | viability at 100 µM [6] [%] | viability at 100 µM [7] [%] | viability at 100 µM [8] [%] | viability at 100 µM [9] [%] | viability at 100 µM [10] [%] | viability at 100 µM [11] [%] | viability at 100 µM [12] [%] | viability at 100 µM [13] [%] | viability at 100 µM [14] [%] | viability at 100 µM [15] [%] | viability at 100 µM [16] [%] | viability at 100 µM [17] [%] | viability at 100 µM [18] [%] | viability at 100 µM [19] [%] | viability at 100 µM [20] [%] | further results |
| --- | --- | --- | --- | --- | --- | --- | --- | --- | --- | --- | --- | --- | --- | --- | --- | --- | --- | --- | --- | --- | --- |
| O=[N+]([O-])c1ccc(NC(CCl)CCl)c(C(F)(F)F)c1 | 10.5 | 31.8 | 20.4 | 55.6 | 24.3 | 9.5 | 24.5 | 45.3 | 26.5 | 37.1 | 38.1 | 12.4 | 61.4 | 38.6 | 21.6 | 40.2 | 23.2 | 28.6 | 47.5 | 22.2 | IC50 [21]: 12.1 µM; IC50 [22]: 42.4 µM; IC50 [23]: 52.1 µM; IC50 [24]: > 100 µM; IC50 [25]: 34.7 µM; IC50 [26]: 10.1 µM; IC50 [27]: 33.1 µM; IC50 [28]: 92.1 µM; IC50 [29]: 33.4 µM; IC50 [30]: 57.7 µM; IC50 [31]: 49.1 µM; IC50 [32]: 15.3 µM; IC50 [33]: > 100 µM; IC50 [34]: 55.1 µM; IC50 [35]: 33.7 µM; IC50 [36]: 85.1 µM; IC50 [37]: 52.1 µM; IC50 [38]: 33.3 µM; IC50 [39]: 81 µM; IC50 [40]: 31 µM |
| O=[N+]([O-])c1ccc(NC(CO)CO)c(C(F)(F)F)c1 | 45.7 | 93.1 | 93.2 | 75.2 | 59.1 | 101 | 84.9 | 84.2 | 61.8 | 99.6 | 93.1 | 82.5 | 90.4 | 52.4 | 74.7 | 84.7 | 109 | 72.4 | 88.8 | 74.9 | IC50 [21]: 88.3 µM; IC50 [22]: > 100 µM; IC50 [23]: > 100 µM; IC50 [24]: > 100 µM; IC50 [25]: > 100 µM; IC50 [26]: > 100 µM; IC50 [27]: > 100 µM; IC50 [28]: > 100 µM; IC50 [29]: > 100 µM; IC50 [30]: > 100 µM; IC50 [31]: > 100 µM; IC50 [32]: > 100 µM; IC50 [33]: > 100 µM; IC50 [34]: > 100 µM; IC50 [35]: > 100 µM; IC50 [36]: > 100 µM; IC50 [37]: > 100 µM; IC50 [38]: > 100 µM; IC50 [39]: > 100 µM; IC50 [40]: > 100 µM |
| O=[N+]([O-])c1ccc(NC(CCl)CCl)cc1C(F)(F)F | 20.5 | 57.4 | 58.6 | 52.7 | 33.2 | 20.9 | 45 | 38.4 | 29.1 | 27.8 | 43.7 | 32.6 | 59.7 | 44.9 | 30.6 | 58.7 | 56.5 | 36.7 | 59.7 | 22.1 | IC50 [21]: 33.1 µM; IC50 [22]: > 100 µM; IC50 [23]: > 100 µM; IC50 [24]: > 100 µM; IC50 [25]: 64.1 µM; IC50 [26]: 37.1 µM; IC50 [27]: 83.8 µM; IC50 [28]: 63.1 µM; IC50 [29]: 43.4 µM; IC50 [30]: 70.4 µM; IC50 [31]: > 100 µM; IC50 [32]: 33.2 µM; IC50 [33]: > 100 µM; IC50 [34]: 93.1 µM; IC50 [35]: 56.4 µM; IC50 [36]: > 100 µM; IC50 [37]: > 100 µM; IC50 [38]: 55.8 µM; IC50 [39]: > 100 µM; IC50 [40]: 33.9 µM |

— ChEMBL document CHEMBL4610038, “The synthesis of trifluoromethylated N-nitroaryl-2-amino-1,3-dichloropropane derivatives and their evaluation as potential anti-cancer agents” (Bioorg Med Chem Lett, 2020)
